Values quoted from earlier work in patent US20050043536A1, “Sulfonamides” (priority 2001, published 2005).

Test system: rat-isolated aorta

For `CC(C)[C@H](NC(=O)[C@@H]1CSSC[C@H](NC(=O)[C@H](CC(=O)O)NC(=O)[C@@H]2CCCN2C(=O)[C@@H](NC(=O)[C@@H](N)CCC(=O)O)[C@@H](C)O)C(=O)N[C@@H](Cc2ccccc2)C(=O)N[C@@H](Cc2c[nH]c3ccccc23)C(=O)N[C@@H](CCCCN)C(=O)N[C@@H](Cc2ccc(O)cc2)C(=O)N1)C(=O)O` [Human Urotensin-II], the contractile activity is given as “the most potent contractile agonist identified to date”.
